Our source for the IC50 values is patent publication US7452997B2 (priority 2004, dated 2008).

In one assay the target is human CB2 receptor (Homo sapiens, UniProt P34972). Description: Binding assay, cannabinoid CB2 receptor ([3H]-CP-55,940 displacement). To be noted: SK-N-MC cell membranes, radioligand CP-55,940 0.2 nM. On the procedure:
(§1) Binding Assay for CB1 or CB2 Agonists or Inverse Agonists
(§2) The human CB1 and CB2 receptors were stably expressed in SK-N-MC cells transfected with pcDNA3 CB-1 (human) or pcDNA3 CB-2 (human). The cells were grown in T-180 cell culture flasks under standard cell culture conditions at 37° C. in a 5% CO2 atmosphere. The cells were harvested by trysinization and homogenized in a homogenization buffer (10 mM Tris, 0.2 mM MgCl2, 5 mM KCl, with protease inhibitors aprotinin, leupeptin, pepstatin A and bacitracin) and centrifuged (2000 g). The supernatant was then centrifuged in 2M sucrose (31,300 g) to produce a semi-purified membrane pellet. The pellet was resuspended in homogenization and store at −80° C.
(§3) On the day of the assay, the pellet was thawed on ice and diluted in assay buffer (50 mM Tris-HCl, 5 mM MgCl2, 2.5 mM EDTA, 0.5 mg/mL fatty acid free bovine serum albumin, pH 7.5). The diluted membrane was added with buffer, test compound or standard and the radioligand [H]^3+-CP-55,940_(0.2 nM) to the wells of a 96-well polypropylene plate. Non-specific binding was measured in wells containing 10 uM WIN 55,212. The plate was covered and incubated for 90 minutes at 30° C. The contents were then aspirated onto a Packard UNIFILTER GF/C filter bottom plate prewet with 0.5% polyethyleneimine. The wells of the polypropylene plate were rinsed and aspirated seven times with a 0.9% saline-0.5% TWEEN 20 solution. The UNIFILTER plate was dried, a scintillation cocktail was added to each well and the counts representing binding were quantitated in a TOPCOUNT scintillation counter.
(§4) The IC50 binding values for compounds tested were calculated by linear regression and were obtained from studies in which varying compound concentrations were used.

A further assay addresses T1, human CB1 receptor (Homo sapiens, UniProt P21554).
T1 construct: expressed in transfected cells; host or cells: SK-N-MC cells, stably transfected with pcDNA3 CB-1 (human); semi-purified membrane pellet
Description: biochemical. The format is binding. On the procedure:
as §1, §2
as §3, with “The diluted membrane was added with buffer, test compound or standard and the radioligand [H]^3+-CP-55,940_(0.2 nM) to the wells of a 96-well polypropylene plate. Non-specific binding was measured in wells containing 10 uM WIN 55,212.” left out, “UNIFILTER” left out
as §4

[1] abbreviates: Cannabinoid CB2 Receptor Binding IC50, human CB2 receptor.

SMILES strings stand for the structures. Read-outs that look alike come from different tables or passages of the source.

human CB2 receptor, sequence (P34972 whole entry): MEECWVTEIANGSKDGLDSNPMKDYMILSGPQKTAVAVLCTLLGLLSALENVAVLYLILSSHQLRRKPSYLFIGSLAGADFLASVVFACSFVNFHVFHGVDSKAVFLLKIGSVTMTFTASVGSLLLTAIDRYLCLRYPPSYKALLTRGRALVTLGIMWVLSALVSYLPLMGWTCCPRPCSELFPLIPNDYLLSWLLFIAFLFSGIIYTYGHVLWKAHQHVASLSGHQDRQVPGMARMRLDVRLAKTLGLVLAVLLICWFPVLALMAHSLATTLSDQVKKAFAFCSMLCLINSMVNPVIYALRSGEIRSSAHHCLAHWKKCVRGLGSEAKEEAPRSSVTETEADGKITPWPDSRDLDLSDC
T1 sequence (P21554 whole entry): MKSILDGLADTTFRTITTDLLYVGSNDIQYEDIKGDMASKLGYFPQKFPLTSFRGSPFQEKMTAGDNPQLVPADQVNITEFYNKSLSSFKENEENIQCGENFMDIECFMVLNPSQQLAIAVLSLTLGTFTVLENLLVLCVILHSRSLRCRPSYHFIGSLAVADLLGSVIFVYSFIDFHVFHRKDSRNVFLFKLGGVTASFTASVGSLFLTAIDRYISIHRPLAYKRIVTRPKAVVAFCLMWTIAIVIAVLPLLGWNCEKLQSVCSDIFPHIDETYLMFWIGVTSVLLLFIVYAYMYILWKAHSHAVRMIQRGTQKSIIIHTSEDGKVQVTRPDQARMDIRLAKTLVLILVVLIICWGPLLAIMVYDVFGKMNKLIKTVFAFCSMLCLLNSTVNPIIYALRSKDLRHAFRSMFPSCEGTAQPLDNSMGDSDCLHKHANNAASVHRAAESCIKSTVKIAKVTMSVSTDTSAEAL

For `C[C@@H](NC(=O)c1nn(C2CCCCC2)c2c1CCCC2)c1ccccc1` [compound 197], the values for the 50% inhibitory concentration (IC50) at human CB2 receptor (setting [1]) and at human CB1 receptor were 800 nM and 980 nM, respectively.
For `O=C(NC1CCCCCCC1)c1nn(Cc2ccccc2)c2c1CCCC2` [compound 127], the IC50 at human CB2 receptor (setting [1]) was found to be 3.9 nM; against human CB1 receptor it was 9.9 nM.
The matching figures for `O=C(NCC12CC3CC(CC(C3)C1)C2)c1nn(-c2ccc(Cl)cc2Cl)c2c1CCCC2` [compound 141]: 140 nM and 300 nM.
The matching figures for `CCOC(=O)C1CCc2c(c(C(=O)NC(C)C34CC5CC(CC(C5)C3)C4)nn2C2CCCCC2)C1` (stereo not shown) [Cpd 132]: 25.5 nM and 2900 nM.
Taken in the same sequence, the figures for `CC(NC(=O)c1nn(-c2ccc(F)cc2)c2c1CCCC2)C1C2CC3CC(C2)CC1C3` (stereo not shown) [compound 22] were 143 nM and 1030 nM.
With `O=C(NN1CCCCC1)c1nn(-c2ccc(Cl)cc2Cl)c2c1CCCC2` [compound 287], the IC50 turned out to be 2100 nM at human CB2 receptor (setting [1]) and 2500 nM against human CB1 receptor.
In the case of `CCOC(=O)C1CCCc2c1c(C(=O)NCC13CC4CC(CC(C4)C1)C3)nn2Cc1ccccc1` (stereo not shown) [compound 159], the figures for the concentration for half-maximal inhibition (IC50) on human CB2 receptor (setting [1]) and at human CB1 receptor were 130 nM and 740 nM, respectively.
Turning to `CC(c1ccccc1)n1nc(C(=O)NC2C3(C)CCC(C3)C2(C)C)c2c1CCCC2` (stereo not shown) [compound 250], the IC50 at human CB2 receptor (setting [1]) turned out to be 5.6 nM; at human CB1 receptor, 70 nM.
Taken in the same sequence, the figures for `CC12CCC(C1)C(C)(C)[C@H]2NC(=O)c1nn(-c2ccc(F)cc2)c2c1CCCC2` (stereo partly shown) [compound 202] were 4.5 nM and 115 nM.
Taken in the same sequence, the figures for `CCOC(=O)C1CCCc2c1c(C(=O)NC(C)C13CC4CC(CC(C4)C1)C3)nn2C1CCCCC1` (stereo not shown) [compound 72] were 4100 nM and 8400 nM.
The matching figures for `COc1ccccc1CCNC(=O)c1nn(C2CCCCC2)c2c1CCCC2` [compound 236]: 940 nM and 25400 nM.
`CC(c1ccccc1)n1nc(C(=O)NC23CC4CC(CC(C4)C2)C3)c2c1CCCC2` (stereo not shown) [compound 244]: the IC50 on human CB2 receptor (setting [1]) was determined as 79 nM; at human CB1 receptor, 300 nM.
`CN(C)C(=O)NC1CCc2c(c(C(=O)NC3C4CC5CC(C4)CC3C5)nn2C2CCCCC2)C1` (stereo not shown) [Cpd 89, 1-cyclohexyl-5-(3,3-dimethyl-ureido)-4,5,6,7-tetrahydro-1H-indazole-3-carboxylic acid adamantan-2-ylamide]: the 50% inhibitory concentration (IC50) at human CB2 receptor (setting [1]) was determined as 1.4 nM; against human CB1 receptor, 3700 nM.
For the compound `CC(NC(=O)c1nn(C2CCCCC2)c2c1CC(C(=O)O)CC2)C12CC3CC(CC(C3)C1)C2` (stereo not shown) [compound 133], the 50% inhibitory concentration (IC50) on human CB2 receptor (setting [1]) came out at 1340 nM; against human CB1 receptor, 12000 nM.
In the case of `CCOC(=O)C1CC=CCC1NC(=O)c1nn(C2CCCCC2)c2c1CCCC2OC` (stereo not shown) [compound 120], the 50% inhibitory concentration (IC50) is 875 nM on human CB2 receptor (setting [1]) and 2460 nM against human CB1 receptor.
The matching figures for `CCOC(=O)[C@H]1C2CCC(C2)[C@H]1NC(=O)c1nn(C2CCCCC2)c2c1CCCC2Cl` (stereo partly shown) [compound 63]: 3300 nM and 13700 nM.
The matching figures for `O=C(NNC1CCCCC1)c1nn(Cc2ccccc2)c2c1CCCC2` [compound 29]: 115 nM and 790 nM.
The matching figures for `CC12CCC(C1)C(C)(C)C2NC(=O)Nc1nn(C2CCCCC2)c2c1CCCC2` (stereo not shown) [compound 205]: 70 nM and 1580 nM.
Consider `CCOC(=O)[C@H]1C2CCC(C2)[C@H]1NC(=O)c1nn(C2CCCCC2)c2c1CCCC2OC` (stereo partly shown) [compound 282], for which the concentration for half-maximal inhibition (IC50) on human CB2 receptor (setting [1]) turned out to be 3800 nM; against human CB1 receptor, 11800 nM.
Taken in the same sequence, the figures for `C[C@H](NC(=O)c1nn(Cc2ccccc2)c2c1CCCC2)c1ccccc1` [compound 200] were 1 nM and 8 nM.
Taken in the same sequence, the figures for `C[C@@H]1[C@@H](NC(=O)c2nn(C3CCCCC3)c3c2CCCC3)C[C@H]2C[C@@H]1C2(C)C` [compound 216] were 70 nM and 2800 nM.
Taken in the same sequence, the figures for `O=C(NC12CC3CC(CC(C3)C1)C2)c1c2c(nn1-c1ccc(Cl)cc1Cl)CCCC2` [compound 140] were 3400 nM and 890 nM.
For the compound `C[C@H](NC(=O)c1nn(C2CCCCC2)c2c1CCCC2)c1ccccc1` [compound 196], the results for the IC50 at human CB2 receptor (setting [1]) and on human CB1 receptor were 120 nM and 125 nM, respectively.
The matching figures for `O=C(NC1CCCCCCC1)c1nn(-c2ccc(F)cc2)c2c1CCCC2` [compound 15]: 53.8 nM and 241 nM.
Taken in the same sequence, the figures for `O=C(NCC12CC3CC(CC(C3)C1)C2)c1nn(-c2ccc(F)cc2)c2c1CCCC2c1ccccc1` (stereo not shown) [compound 145] were 1100 nM and 950 nM.
Taken in the same sequence, the figures for `O=C(NC1C2CC3CC(C2)CC1C3)c1nn(C2CCCCC2)c2c1CCCC2` (stereo not shown) [compound 45] were 5.6 nM and 40 nM.
`CC(C)(C)OC(=O)NC1CCc2c(c(C(=O)NC3C4CC5CC(C4)CC3C5)nn2C2CCCCC2)C1` (stereo not shown) [compound 85]: the half-inhibitory concentration (IC50) turned out to be 82 nM at human CB2 receptor (setting [1]) and 600 nM against human CB1 receptor.
Taken in the same sequence, the figures for `CCOC(=O)C1C2CCC(C2)C1NC(=O)c1nn(-c2ccc(F)cc2)c2c1CCCC2` (stereo not shown) [compound 23] were 100 nM and 1800 nM.
For the compound `CCOC(=O)[C@@H]1C2C=CC(C2)[C@@H]1NC(=O)c1nn(C2CCCCC2)c2c1CCCC2` (stereo partly shown) [compound 280], the IC50 at human CB2 receptor (setting [1]) stood at 679 nM; against human CB1 receptor, 3600 nM.
Taken in the same sequence, the figures for `O=C(NC1C2CC3CC(C2)CC1C3)c1nn(Cc2ccccc2)c2c1CCCC2` (stereo not shown) [compound 136] were 0.5 nM and 0.8 nM.
`O=C(NNC1CCCCC1)c1nn(-c2ccc(F)cc2)c2c1CCCC2` [compound 30]: the IC50 at human CB2 receptor (setting [1]) worked out at 1470 nM; on human CB1 receptor, 7890 nM.
Taken in the same sequence, the figures for `O=C(NCC(O)C1CCCCC1)c1nn(C2CCCCC2)c2c1CCCC2` (stereo not shown) [compound 185] were 120 nM and 900 nM.
The matching figures for `CCOC(=O)[C@H]1C2CCC(C2)[C@H]1NC(=O)c1nn(C2CCCCC2)c2c1CCCC2O` (stereo partly drawn) [Cpd 164, (2S,3R)-3-[(1-cyclohexyl-7-hydroxy-4,5,6,7-tetrahydro-1H-indazole-3-carbonyl)-amino]-bicyclo[2.2.1]heptane-2-carboxylic acid ethyl ester]: 490 nM and 6010 nM.
The matching figures for `C[C@H](NC(=O)c1nn(C2CCCCC2)c2c1CCCC2)C12CC3CC(CC(C3)C1)C2` [compound 213]: 200 nM and 950 nM.
With `CCOC(=O)[C@H]1C2CCC(C2)[C@H]1NC(=O)CCc1nn(C2CCCCC2)c2c1CCCC2` (stereo partly shown) [compound 54], the IC50 turned out to be 6050 nM at human CB2 receptor (setting [1]) and 11400 nM against human CB1 receptor.
Taken in the same sequence, the figures for `CC(C)N(C(=O)c1nn(C2CCCCC2)c2c1CCCC2)[C@H](C)C1CCCCC1` [compound 329] were 20 nM and 1700 nM.
With `CC1(C)C2CCC1(C)C(NC(=O)c1nn(-c3ccc(F)cc3)c3c1CCCC3)C2` (stereo not shown) [compound 21], the IC50 at human CB2 receptor (setting [1]) was determined as 11 nM; at human CB1 receptor, 44 nM.
Turning to `COc1ccccc1CCNC(=O)c1nn(-c2ccccc2)c2c1CCCC2` [compound 238], the IC50 is 3720 nM on human CB2 receptor (human CB2 receptor, read-out: Cannabinoid CB2 Receptor Binding IC50) and 25100 nM on human CB1 receptor (human CB1 receptor, SK-N-MC cell membranes, radioligand CP-55,940 0.2 nM, read-out: Cannabinoid CB1 Receptor Binding IC50).
Consider `CC(NC(=O)c1nn(Cc2ccccc2)c2c1CCCC2c1ccccc1)C1CCCCC1` (stereo not shown) [compound 267], for which the IC50 on human CB2 receptor (setting [1]) turned out to be 270 nM; on human CB1 receptor, 150 nM.
Consider `O=C(NC(Cc1ccc(OCc2ccccc2)cc1)C(=O)O)c1nn(C2CCCCC2)c2c1CCCC2` (stereo not shown) [compound 78], for which the IC50 was determined as 1210 nM at human CB2 receptor (setting [1]) and 4600 nM on human CB1 receptor.
The matching figures for `C[C@@H](NC(=O)c1nn(Cc2ccccc2)c2c1CCCC2)C1CCCCC1` [compound 198]: 5.7 nM and 100 nM.
Taken in the same sequence, the figures for `O=C(N[C@@H]1CCCC[C@@H]1CO)c1nn(C2CCCCC2)c2c1CCCC2` [compound 48] were 55.3 nM and 249 nM.
With `CC12CCC(C1)C(C)(C)C2NC(=O)c1nn(-c2ccc(Cl)cc2Cl)c2c1CCCC2` (stereo not shown) [compound 129], the values for the half-inhibitory concentration (IC50) at human CB2 receptor (setting [1]) and on human CB1 receptor were 1.7 nM and 5.7 nM, respectively.
The matching figures for `COC(=O)C(Cc1ccc(OCc2ccccc2)cc1)NC(=O)c1nn(Cc2ccccc2)c2c1CCCC2` (stereo not shown) [compound 80]: 170 nM and 230 nM.
